Measurements from PubChem BioAssay AID336 (DTP/NCI, 2004).
Several values for one entry are separate records, joined by “and”; a condition that tells them apart may be missing. Equal entries are not always repeated. Inconclusive results and toxic doses are left out.

System: BDF1 mice, P388/VCR leukemia ip, median survival T/C
Assay: NCI In Vivo Anticancer Drug Screen. Data for tumor model P388 Leukemia resistant to Vincristine; NSC 67574 (intraperitoneal) in B6D2F1 (BDF1) mice
Conditions: endpoint: median survival time, higher = longer survival
Protocol: The antitumor activity of compounds was measured in mice bearing transplantable tumors. Survival or tumor size were measured and the results are expressed as the measurement made in the treated group (T) divided by the measurement made in the vehicle treated control group (C). The tumor model used in this assay is P388 Leukemia resistant to Vincristine; NSC 67574 (intraperitoneal) in B6D2F1 (BDF1) mice

## Cc1c2ccncc2c(C)c2c1[nH]c1ccccc12
dose: 13.0 mg/kg/injection, schedule: Q04DX003 (ip), vehicle: water
  T/C: 150 % of control
dose: 21.6 mg/kg/injection, schedule: Q04DX003 (ip), vehicle: water
  T/C: 210 % of control
dose: 24.0 mg/kg/injection, schedule: Q04DX003 (ip), vehicle: clinical formulation
  T/C: 158 % of control
dose: 36.0 mg/kg/injection, schedule: Q04DX003 (ip), vehicle: water
  T/C: 253 % of control
dose: 40.0 mg/kg/injection, schedule: Q04DX003 (ip), vehicle: clinical formulation
  T/C: 203 % of control
dose: 60.0 mg/kg/injection, schedule: Q04DX003 (ip), vehicle: water
  T/C: 93 % of control
dose: 66.7 mg/kg/injection, schedule: Q04DX003 (ip), vehicle: clinical formulation
  T/C: 98 % of control

## C[C@]12C=CC(=O)C=C1CC[C@@H]1[C@@H]2[C@@H](O)C[C@@]2(C)[C@H]1CC[C@]2(O)C(=O)CO
dose: 12.5 mg/kg/injection, schedule: Q01DX010 (sc), vehicle: steriod suspending solution
  T/C: 107 % of control and 116 % of control
dose: 25.0 mg/kg/injection, schedule: Q01DX010 (sc), vehicle: steriod suspending solution
  T/C: 103 % of control and 116 % of control
dose: 50.0 mg/kg/injection, schedule: Q01DX010 (sc), vehicle: steriod suspending solution
  T/C: 103 % of control and 120 % of control
dose: 100.0 mg/kg/injection, schedule: Q01DX010 (sc), vehicle: steriod suspending solution
  T/C: 108 % of control and 111 % of control

## COC1C(O)C(C)OC(OC2C(Oc3cccc4c(O)c5c(=O)oc6ccc(C)c7c(=O)oc(c34)c5c67)OC(C)C(O)C2O)C1O (configuration not stated)
dose: 43.2 mg/kg/injection, schedule: Q04DX003 (ip), vehicle: acid diluted with saline
  T/C: 121 % of control
dose: 72.0 mg/kg/injection, schedule: Q04DX003 (ip), vehicle: acid diluted with saline
  T/C: 114 % of control
dose: 200.0 mg/kg/injection, schedule: Q04DX003 (ip), vehicle: acid diluted with saline
  T/C: 123 % of control

## COc1cccc2c1C(=O)c1c(O)c3c(c(O)c1C2=O)C[C@@](O)(C(=O)CO)C[C@@H]3OC1CC(N)C(O)C(C)O1 (some centres not stated)
dose: 1.44 mg/kg/injection, schedule: Q04DX003 (ip), vehicle: saline
  T/C: 172 % of control
dose: 1.44 mg/kg/injection, schedule: Q04DX003 (ip), vehicle: water
  T/C: 168 % of control
dose: 2.4 mg/kg/injection, schedule: Q04DX003 (ip), vehicle: saline
  T/C: 188 % of control
dose: 2.4 mg/kg/injection, schedule: Q04DX003 (ip), vehicle: water
  T/C: 159 % of control and 200 % of control
dose: 4.0 mg/kg/injection, schedule: Q04DX003 (ip), vehicle: saline
  T/C: 169 % of control
dose: 4.0 mg/kg/injection, schedule: Q04DX003 (ip), vehicle: water
  T/C: 155 % of control and 168 % of control
dose: 6.67 mg/kg/injection, schedule: Q04DX003 (ip), vehicle: saline
  T/C: 182 % of control
dose: 6.67 mg/kg/injection, schedule: Q04DX003 (ip), vehicle: water
  T/C: 100 % of control

## CN(C)/N=N/c1nc[nH]c1C(N)=O
dose: 25.0 mg/kg/injection, schedule: Q01DX010 (ip), vehicle: saline
  T/C: 100 % of control and 116 % of control
dose: 50.0 mg/kg/injection, schedule: Q01DX010 (ip), vehicle: saline
  T/C: 107 % of control
dose: 200.0 mg/kg/injection, schedule: Q01DX010 (ip), vehicle: saline
  T/C: 107 % of control and 116 % of control

## CC1CC(C)(O)CC(C(O)CC2CC(=O)NC(=O)C2)C1=O (configuration not stated)
dose: 480.0 micrograms/kg/injection, schedule: Q01DX009 (ip), vehicle: saline
  T/C: 105 % of control
dose: 800.0 micrograms/kg/injection, schedule: Q01DX009 (ip), vehicle: saline
  T/C: 92 % of control
